ChEMBL document CHEMBL1130531, “A new series of selective dopamine D4 ligands: 3-([4-arylpiperazin-1-yl]alkylamino)-2H-1,4-benzoxazines” (Bioorg Med Chem Lett, 1997)

What was measured:
Type in all cases: cell-based
D(4) dopamine receptor = molecular target: T1, D(4) dopamine receptor (Homo sapiens, UniProt P21917); assay: Binding affinity at cloned human D4 dopamine receptor in CHO cells using [3H]-YM 09151 as radioligand
T1 sequence (P21917 whole entry): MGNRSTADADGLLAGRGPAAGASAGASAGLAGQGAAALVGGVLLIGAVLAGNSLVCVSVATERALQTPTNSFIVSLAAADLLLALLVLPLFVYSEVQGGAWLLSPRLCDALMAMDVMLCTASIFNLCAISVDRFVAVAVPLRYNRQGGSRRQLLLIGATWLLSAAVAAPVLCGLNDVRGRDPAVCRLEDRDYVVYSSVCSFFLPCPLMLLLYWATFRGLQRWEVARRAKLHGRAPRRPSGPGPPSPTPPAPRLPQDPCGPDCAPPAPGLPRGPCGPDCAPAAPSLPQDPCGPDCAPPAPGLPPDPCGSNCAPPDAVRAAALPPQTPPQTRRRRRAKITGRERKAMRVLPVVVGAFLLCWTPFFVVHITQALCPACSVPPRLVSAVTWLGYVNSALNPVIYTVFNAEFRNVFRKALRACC

D(3) dopamine receptor = D(3) dopamine receptor (Homo sapiens, UniProt P35462); assay: Binding affinity at cloned human D3 dopamine receptor in CHO cells using [3H]-YM 09151 as radioligand
D(2) dopamine receptor = D(2) dopamine receptor (Homo sapiens, UniProt P14416); assay: Binding affinity at cloned human D2 dopamine receptor in CHO cells using [3H]-YM 09151 as radioligand
Sequence of D(2) dopamine receptor (P14416 whole entry): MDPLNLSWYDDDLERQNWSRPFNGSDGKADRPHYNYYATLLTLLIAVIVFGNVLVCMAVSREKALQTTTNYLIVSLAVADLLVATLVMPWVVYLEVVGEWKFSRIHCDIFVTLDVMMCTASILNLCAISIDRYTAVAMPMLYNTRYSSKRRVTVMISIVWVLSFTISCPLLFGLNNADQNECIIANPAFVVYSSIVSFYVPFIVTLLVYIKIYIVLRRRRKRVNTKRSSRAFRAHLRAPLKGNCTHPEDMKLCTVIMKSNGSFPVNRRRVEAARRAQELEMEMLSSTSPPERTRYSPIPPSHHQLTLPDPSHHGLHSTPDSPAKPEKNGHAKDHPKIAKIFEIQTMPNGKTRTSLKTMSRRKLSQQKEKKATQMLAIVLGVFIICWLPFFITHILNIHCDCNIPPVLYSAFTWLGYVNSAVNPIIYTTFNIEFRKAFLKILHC

Sequence of D(3) dopamine receptor (P35462 whole entry): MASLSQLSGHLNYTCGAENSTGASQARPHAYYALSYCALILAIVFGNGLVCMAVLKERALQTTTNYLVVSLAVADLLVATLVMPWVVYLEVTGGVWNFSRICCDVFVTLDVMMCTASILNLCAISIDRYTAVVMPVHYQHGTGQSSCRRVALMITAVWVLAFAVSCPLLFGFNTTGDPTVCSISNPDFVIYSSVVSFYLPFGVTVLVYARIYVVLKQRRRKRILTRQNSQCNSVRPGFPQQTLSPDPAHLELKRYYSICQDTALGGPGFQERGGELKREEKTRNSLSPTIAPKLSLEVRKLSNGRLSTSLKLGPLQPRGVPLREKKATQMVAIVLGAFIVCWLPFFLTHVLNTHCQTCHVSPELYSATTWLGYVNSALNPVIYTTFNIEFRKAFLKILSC

SMILES | Ki (D(4) dopamine receptor) [nM] | Ki (D(3) dopamine receptor) [nM] | Ki (D(2) dopamine receptor) [nM]
c1ccc2c(c1)N=C(NCCCCCN1CCN(c3ccc4ccccc4n3)CC1)CO2 | 125 | – | –
COc1ccccc1N1CCN(CCCNC2=Nc3ccccc3OC2)CC1 | 3 | > 1000 | 280
